# What was measured:
# [1] = test system: CD8^+ T cells; experiment: Proliferation of CD8+ T cells (Ki67+ staining, flow cytometry) in tumor cell suspensions incubated with IL-15; type: cell-based, human
# Experimental: (§1) Tumoral (Tu) and non-tumoral tissue (NTu) were obtained from 82 NSCLC patients undergoing neoadjuvant surgery. The characteristics of NSCLC patients are depicted in Table 2. Tissue samples obtained at the day of surgery were chopped into small pieces and incubated with agitation in RMPI 1640 medium (Gibco) with 100 ng/ml DNAse I and 20 ng/ml Collagenase D (both from Roche) for 45 minutes at 37° C. The cell suspension was then passed through the 100 μm strainer into 50 ml falcon tubes to obtain single cell suspensions. The infiltrated immune cell populations were analyzed by flow cytometry immediately after staining with specific antibodies for 30 min at 4° C. as described below. For further stimulation lymphocytes were counted and seeded into 96-well plates at the concentration of 1×10^6 lymphocytes/nil in RPMI-1640 medium supplemented with 10% heat-inactivated fetal bovine serum (PAA), 2 mM GlutaMAX I CTS (Gibco) and 100 U/ml penicillin+[…] streptomycin (Gibco). Cells were stimulated with 50 ng/ml PMA and 10 ng/ml ionomycin (both from Sigma-Aldrich) for 1 h at 37° C. before Brefeldin A (BioLegend, 1000×) was added for 3 h to detect intracellular IFN-γ in CD8^+ and CD4^+ T cells. In some experiments recombinant IL-15 (Peprotech, 13 ng/ml) was added to the cell culture and the proliferating CD8^+ T cells and NK cells were detected by flow cytometry after 3 and 7 days of incubation at 37° C. Cell viability was detected by DAPI (Thermo Fisher Scientific) or by LIVE/DEAD® Fixable Aqua Dead Cell Stain Kit 405 nm excitation (Invitrogen).
# (§2) Cells were stained extracellularly with the mixture of appropriate antibody in PBS for 30 min at 4° C. For intracellular staining of IFN-γ, Foxp3, CD3 and Ki-67 the cells were fixed for 30 min using Fixation Buffer (eBioscience), permeabilized with Permeabilization Buffer (eBioscience) and stained intracellularly for 30 min at 4° C. Cells were washed with PBS and analyzed by LSRFortessa (BD Biosciences). Data were analyzed with FlowJo software (Tree Star). Flow cytometry data may be expressed as mean fluorescent intensity (MFI).
# (§3) As PMA and ionomycin represent strong unspecific stimulation of immune cells, IL-15 was used to activate predominantly NK cells and CD8^+ T cells, playing a major role in antitumor immunity. Tumor cell suspensions were incubated alone or with IL-15 for 7 days. The proliferation of CD8^+ T cells and NK cells was analyzed on Day 0, 3 and 7 by Ki67^+ staining followed by flow cytometry. Whereas 68% and 79% of T cells and NK cells, respectively, proliferated on Day 3 of incubation in AC tumors, only 23% and 8% of T cells and NK cells, respectively, proliferated in SCC tumors, confirming a higher immunosuppressive environment in SCC than AC tumors (see Table 6).
# [2] = test system: NK cells (CD3^−CD56^+); experiment: Proliferation of NK cells (Ki67+ staining, flow cytometry) in tumor cell suspensions incubated with IL-15; type: cell-based, human
# Experimental: as §1, §2, §3
# [3] = AC tumor cell suspension, Day 3, +IL-15
# [4] = AC tumor cell suspension, Day 7, +IL-15
# [5] = SCC tumor cell suspension, Day 3, +IL-15
# [6] = SCC tumor cell suspension, Day 7, +IL-15
substance,measurement,setting,value
"IL-15: recombinant IL-15 (Peprotech, 13 ng/ml) added to cell culture to activate predominantly NK cells and CD8+ T cells",Ki67^+ cells from CD8^+ T cells,[1]; [3],68%
same,Ki67^+ cells from CD8^+ T cells,[1]; [4],62%
same,Ki67^+ cells from CD8^+ T cells,[1]; [5],23%
same,Ki67^+ cells from CD8^+ T cells,[1]; [6],45%
same,Ki67^+ cells from CD3^−CD56^+ T cells (NK cells),[2]; [3],79%
same,Ki67^+ cells from CD3^−CD56^+ T cells (NK cells),[2]; [4],50%
same,Ki67^+ cells from CD3^−CD56^+ T cells (NK cells),[2]; [5],8%
same,Ki67^+ cells from CD3^−CD56^+ T cells (NK cells),[2]; [6],40%

# From US20210252120A1, “IMMUNOTHERAPY FOR CANCER” (SOTIO A.S., priority 2016, published 2021)
